Among the data in ChEMBL document CHEMBL4014275, “Discovery of benzofuran-3(2H)-one derivatives as novel DRAK2 inhibitors that protect islet β-cells from apoptosis” (Eur J Med Chem, 2017) are IC50 values, retold here.

For assay [1], the target named is T1, Serine/threonine-protein kinase 17B (Homo sapiens, UniProt O94768).
T1 sequence (O94768 whole entry): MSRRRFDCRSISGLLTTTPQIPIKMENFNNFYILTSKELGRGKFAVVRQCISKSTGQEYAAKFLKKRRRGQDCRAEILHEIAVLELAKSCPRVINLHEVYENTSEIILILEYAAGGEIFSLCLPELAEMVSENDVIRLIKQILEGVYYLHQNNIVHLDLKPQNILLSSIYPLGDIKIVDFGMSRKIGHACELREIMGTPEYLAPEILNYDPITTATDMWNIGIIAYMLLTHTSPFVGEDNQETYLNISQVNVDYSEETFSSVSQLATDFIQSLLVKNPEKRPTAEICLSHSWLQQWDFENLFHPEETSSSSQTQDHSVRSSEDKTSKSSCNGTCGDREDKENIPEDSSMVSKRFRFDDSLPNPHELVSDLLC
The assay can be described thus: Inhibition of recombinant GST-tagged DRAK2 (unknown origin) autophosphorylation after 2 hrs by ADP-glo assay. A general note: In ADP-Glo the light output rises with the ADP produced.

The target in assay [2] is Death-associated protein kinase 2 (Homo sapiens, UniProt Q9UIK4). Briefly: Inhibition of human DAPK2.
Death-associated protein kinase 2, sequence (Q9UIK4 whole entry): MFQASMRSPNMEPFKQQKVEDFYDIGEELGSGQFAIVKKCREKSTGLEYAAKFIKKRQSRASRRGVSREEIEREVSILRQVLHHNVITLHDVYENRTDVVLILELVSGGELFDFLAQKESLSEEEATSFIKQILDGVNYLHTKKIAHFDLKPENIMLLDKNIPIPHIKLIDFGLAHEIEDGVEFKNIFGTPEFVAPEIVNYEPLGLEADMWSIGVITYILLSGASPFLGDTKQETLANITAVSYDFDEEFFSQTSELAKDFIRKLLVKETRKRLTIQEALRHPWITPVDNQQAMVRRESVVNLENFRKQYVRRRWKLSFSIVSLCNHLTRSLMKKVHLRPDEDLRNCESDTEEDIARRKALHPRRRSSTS
Assay [3] deals with Death-associated protein kinase 3 (Homo sapiens, UniProt O43293). The assay can be described thus: Inhibition of human DAPK3.
Death-associated protein kinase 3, sequence (O43293 whole entry): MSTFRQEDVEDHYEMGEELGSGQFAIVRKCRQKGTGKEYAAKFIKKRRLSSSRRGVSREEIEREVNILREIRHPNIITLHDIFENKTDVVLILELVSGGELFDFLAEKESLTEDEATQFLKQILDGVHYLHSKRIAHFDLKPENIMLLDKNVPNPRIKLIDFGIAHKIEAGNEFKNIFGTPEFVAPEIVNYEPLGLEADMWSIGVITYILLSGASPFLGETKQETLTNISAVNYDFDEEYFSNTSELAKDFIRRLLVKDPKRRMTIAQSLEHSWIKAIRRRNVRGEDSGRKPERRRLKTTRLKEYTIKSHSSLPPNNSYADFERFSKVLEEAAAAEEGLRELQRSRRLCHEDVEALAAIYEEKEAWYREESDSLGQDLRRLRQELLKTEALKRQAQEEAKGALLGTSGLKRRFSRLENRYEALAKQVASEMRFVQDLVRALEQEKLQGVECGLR
For assay [4], the target named is T2, Serine/threonine-protein kinase 17A (Homo sapiens, UniProt Q9UEE5).
T2 sequence (Q9UEE5 whole entry): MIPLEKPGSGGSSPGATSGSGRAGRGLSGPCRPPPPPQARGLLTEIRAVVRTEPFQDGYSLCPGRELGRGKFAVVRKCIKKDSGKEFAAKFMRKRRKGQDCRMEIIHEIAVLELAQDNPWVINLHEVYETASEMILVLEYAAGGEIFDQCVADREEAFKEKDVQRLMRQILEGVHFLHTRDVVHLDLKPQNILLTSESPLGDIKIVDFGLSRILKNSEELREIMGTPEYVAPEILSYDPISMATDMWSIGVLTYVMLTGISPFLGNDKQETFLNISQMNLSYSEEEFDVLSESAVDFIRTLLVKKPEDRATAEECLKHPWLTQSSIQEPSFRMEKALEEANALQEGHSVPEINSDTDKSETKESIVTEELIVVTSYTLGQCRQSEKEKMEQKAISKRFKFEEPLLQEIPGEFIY
The assay can be described thus: Inhibition of human DRAK1.

The target in assay [5] is Tyrosine-protein kinase Blk (Homo sapiens, UniProt P51451). The assay can be described thus: Inhibition of human BLK.
Tyrosine-protein kinase Blk, sequence (P51451 whole entry): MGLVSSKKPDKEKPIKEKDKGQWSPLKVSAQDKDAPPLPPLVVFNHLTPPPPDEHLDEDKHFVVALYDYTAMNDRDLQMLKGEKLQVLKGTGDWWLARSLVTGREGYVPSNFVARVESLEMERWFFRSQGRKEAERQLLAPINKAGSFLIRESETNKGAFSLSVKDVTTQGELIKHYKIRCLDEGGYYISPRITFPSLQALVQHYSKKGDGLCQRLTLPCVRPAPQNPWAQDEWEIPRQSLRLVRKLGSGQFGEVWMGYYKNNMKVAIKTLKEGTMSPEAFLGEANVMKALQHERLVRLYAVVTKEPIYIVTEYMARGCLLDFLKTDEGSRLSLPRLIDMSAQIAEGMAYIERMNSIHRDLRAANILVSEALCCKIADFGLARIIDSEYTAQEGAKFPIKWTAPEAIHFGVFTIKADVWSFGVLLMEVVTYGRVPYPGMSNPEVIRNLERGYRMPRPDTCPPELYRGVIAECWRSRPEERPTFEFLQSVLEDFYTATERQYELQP
Assay [6] concerns the target T3, Tyrosine-protein kinase ITK/TSK (Homo sapiens, UniProt Q08881).
T3 sequence (Q08881 whole entry): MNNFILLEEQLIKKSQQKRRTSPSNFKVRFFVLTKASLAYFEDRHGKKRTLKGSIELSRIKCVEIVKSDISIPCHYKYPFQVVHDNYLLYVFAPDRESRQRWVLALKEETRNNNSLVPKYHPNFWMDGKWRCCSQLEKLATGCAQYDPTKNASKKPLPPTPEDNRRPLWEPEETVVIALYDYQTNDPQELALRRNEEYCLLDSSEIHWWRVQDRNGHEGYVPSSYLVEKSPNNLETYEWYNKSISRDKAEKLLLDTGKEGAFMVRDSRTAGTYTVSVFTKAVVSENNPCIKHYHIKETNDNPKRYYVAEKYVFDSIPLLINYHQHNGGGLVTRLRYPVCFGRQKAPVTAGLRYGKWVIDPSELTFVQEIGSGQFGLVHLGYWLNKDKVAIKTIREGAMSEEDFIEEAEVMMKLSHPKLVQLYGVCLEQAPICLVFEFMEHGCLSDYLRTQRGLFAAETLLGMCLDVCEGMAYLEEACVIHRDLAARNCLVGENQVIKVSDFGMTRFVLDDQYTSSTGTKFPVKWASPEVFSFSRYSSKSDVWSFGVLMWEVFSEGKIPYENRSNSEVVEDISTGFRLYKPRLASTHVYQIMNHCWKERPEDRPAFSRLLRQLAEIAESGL
Briefly: Inhibition of human ITK.

Assay [7] has as its target Angiopoietin-1 receptor (Homo sapiens, UniProt Q02763). Briefly: Inhibition of human TEK.
Assay [8] has as its target T4, Aurora kinase A (Homo sapiens, UniProt O14965).
T4 sequence (O14965 whole entry): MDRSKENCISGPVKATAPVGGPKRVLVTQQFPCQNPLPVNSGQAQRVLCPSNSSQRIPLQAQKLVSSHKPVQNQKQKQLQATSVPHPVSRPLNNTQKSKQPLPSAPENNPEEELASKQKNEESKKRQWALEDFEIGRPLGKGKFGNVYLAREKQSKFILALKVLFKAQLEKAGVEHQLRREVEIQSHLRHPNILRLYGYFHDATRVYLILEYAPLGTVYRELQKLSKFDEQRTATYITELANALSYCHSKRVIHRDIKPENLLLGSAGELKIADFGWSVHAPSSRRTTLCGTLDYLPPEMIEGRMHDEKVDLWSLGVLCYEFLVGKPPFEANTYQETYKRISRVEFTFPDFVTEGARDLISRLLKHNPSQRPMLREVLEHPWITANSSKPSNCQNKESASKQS
Briefly: Inhibition of human AURORA-A.

Assay [9] concerns the target Tyrosine-protein kinase BTK (Homo sapiens, UniProt Q06187). Briefly: Inhibition of human BTK.
Assay [10] addresses Cyclin-dependent kinase 5 (Homo sapiens, UniProt Q00535). Briefly: Inhibition of human CDK5.
Assay [11] addresses Glycogen synthase kinase-3 beta (Homo sapiens, UniProt P49841). Briefly: Inhibition of human GSK3beta.
Assay [12] concerns the target Death-associated protein kinase 1 (Homo sapiens, UniProt P53355). Briefly: Inhibition of human DAPK1.
In assay [13] the target is Tyrosine-protein kinase JAK2 (Homo sapiens, UniProt O60674). The assay can be described thus: Inhibition of human JAK2.
In assay [14] the target is T5, Tyrosine-protein kinase JAK3 (Homo sapiens, UniProt P52333).
T5 sequence (P52333 whole entry): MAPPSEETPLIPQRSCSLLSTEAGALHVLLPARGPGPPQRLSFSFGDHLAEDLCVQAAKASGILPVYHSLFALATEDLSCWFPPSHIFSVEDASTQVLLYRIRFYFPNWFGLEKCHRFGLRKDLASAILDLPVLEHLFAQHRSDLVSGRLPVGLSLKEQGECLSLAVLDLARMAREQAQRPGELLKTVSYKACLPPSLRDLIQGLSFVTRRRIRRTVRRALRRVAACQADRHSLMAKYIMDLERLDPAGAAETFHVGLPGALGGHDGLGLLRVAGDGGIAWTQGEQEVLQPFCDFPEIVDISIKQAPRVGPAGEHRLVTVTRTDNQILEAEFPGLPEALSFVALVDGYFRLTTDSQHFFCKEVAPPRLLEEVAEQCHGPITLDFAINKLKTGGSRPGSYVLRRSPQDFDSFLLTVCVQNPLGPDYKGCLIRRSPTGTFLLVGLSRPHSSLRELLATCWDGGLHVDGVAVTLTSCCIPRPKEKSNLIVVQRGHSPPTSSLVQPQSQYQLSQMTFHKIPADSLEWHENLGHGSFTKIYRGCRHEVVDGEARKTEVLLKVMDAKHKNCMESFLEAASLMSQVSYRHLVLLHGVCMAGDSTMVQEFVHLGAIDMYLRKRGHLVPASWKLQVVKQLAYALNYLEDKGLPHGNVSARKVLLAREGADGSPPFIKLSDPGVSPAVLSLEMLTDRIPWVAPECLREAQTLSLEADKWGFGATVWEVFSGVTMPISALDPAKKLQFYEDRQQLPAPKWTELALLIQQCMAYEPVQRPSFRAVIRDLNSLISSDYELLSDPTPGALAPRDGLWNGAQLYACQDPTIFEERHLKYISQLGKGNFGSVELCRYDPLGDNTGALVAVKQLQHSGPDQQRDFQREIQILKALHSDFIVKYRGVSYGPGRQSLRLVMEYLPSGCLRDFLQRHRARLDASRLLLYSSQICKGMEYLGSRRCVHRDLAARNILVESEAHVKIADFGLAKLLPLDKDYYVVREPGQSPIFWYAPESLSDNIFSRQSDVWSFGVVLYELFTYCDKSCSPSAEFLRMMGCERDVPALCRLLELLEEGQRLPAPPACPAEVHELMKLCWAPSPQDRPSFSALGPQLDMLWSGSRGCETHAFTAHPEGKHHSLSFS
The assay can be described thus: Inhibition of human JAK3.

Assay [15] addresses Tyrosine-protein kinase SYK (Homo sapiens, UniProt P43405). The assay can be described thus: Inhibition of human SYK.
Assay [16] addresses Cyclin-dependent kinase 4 (Homo sapiens, UniProt P11802). Briefly: Inhibition of human CDK4.
In assay [17] the target is Cyclin-dependent kinase 6 (Homo sapiens, UniProt Q00534). Briefly: Inhibition of human CDK6.
Cyclin-dependent kinase 6, sequence (Q00534 whole entry): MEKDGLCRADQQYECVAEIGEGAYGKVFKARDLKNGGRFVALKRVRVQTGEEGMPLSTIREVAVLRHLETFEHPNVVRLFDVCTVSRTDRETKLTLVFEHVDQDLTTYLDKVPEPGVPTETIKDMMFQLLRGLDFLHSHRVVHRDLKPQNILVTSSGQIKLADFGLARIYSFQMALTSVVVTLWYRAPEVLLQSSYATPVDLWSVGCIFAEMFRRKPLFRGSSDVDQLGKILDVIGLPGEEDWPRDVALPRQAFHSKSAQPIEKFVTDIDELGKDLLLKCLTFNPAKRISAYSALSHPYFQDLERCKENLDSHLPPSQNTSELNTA
Assay [18] addresses Cyclin-dependent kinase 9 (Homo sapiens, UniProt P50750). Briefly: Inhibition of human CDK9.

Glycogen synthase kinase-3 beta, sequence (P49841 whole entry): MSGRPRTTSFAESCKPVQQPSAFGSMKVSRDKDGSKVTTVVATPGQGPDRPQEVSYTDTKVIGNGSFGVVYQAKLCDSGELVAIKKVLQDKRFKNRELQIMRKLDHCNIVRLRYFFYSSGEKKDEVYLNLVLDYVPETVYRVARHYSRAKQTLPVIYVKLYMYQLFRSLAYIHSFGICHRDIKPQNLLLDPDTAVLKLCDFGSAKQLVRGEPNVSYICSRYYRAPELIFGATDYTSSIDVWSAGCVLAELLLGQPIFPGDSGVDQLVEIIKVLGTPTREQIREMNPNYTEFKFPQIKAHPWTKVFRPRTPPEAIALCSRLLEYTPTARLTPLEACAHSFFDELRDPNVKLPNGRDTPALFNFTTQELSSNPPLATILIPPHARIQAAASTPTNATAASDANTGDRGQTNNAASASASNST
Angiopoietin-1 receptor, sequence (Q02763 whole entry): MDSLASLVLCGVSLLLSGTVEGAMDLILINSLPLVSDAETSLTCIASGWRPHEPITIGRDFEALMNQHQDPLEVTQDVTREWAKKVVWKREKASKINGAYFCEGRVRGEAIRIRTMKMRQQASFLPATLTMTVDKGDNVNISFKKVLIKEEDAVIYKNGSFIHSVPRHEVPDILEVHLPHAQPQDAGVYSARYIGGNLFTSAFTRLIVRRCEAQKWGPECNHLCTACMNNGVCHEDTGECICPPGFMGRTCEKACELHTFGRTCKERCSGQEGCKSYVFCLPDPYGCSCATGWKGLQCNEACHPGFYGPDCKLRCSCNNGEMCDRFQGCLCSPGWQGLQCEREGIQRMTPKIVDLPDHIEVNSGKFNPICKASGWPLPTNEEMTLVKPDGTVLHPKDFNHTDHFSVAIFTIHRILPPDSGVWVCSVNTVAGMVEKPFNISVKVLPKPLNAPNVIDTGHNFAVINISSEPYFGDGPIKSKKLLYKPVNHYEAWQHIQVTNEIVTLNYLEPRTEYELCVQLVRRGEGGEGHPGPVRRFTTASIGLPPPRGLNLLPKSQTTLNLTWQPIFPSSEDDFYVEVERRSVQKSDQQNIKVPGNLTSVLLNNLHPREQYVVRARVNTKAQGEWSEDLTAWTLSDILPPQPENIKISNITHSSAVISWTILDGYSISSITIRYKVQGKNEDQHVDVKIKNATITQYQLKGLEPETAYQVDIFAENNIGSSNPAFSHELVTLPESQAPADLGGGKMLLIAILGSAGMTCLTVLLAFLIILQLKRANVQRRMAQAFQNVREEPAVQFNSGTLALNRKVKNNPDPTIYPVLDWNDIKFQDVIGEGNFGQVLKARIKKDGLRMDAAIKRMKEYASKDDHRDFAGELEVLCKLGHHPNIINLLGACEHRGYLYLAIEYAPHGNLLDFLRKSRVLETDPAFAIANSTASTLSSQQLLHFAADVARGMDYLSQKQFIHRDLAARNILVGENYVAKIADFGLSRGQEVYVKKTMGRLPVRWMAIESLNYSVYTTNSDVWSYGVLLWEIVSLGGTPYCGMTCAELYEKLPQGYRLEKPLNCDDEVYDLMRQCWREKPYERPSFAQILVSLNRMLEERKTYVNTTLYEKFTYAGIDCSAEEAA
Tyrosine-protein kinase BTK, sequence (Q06187 whole entry): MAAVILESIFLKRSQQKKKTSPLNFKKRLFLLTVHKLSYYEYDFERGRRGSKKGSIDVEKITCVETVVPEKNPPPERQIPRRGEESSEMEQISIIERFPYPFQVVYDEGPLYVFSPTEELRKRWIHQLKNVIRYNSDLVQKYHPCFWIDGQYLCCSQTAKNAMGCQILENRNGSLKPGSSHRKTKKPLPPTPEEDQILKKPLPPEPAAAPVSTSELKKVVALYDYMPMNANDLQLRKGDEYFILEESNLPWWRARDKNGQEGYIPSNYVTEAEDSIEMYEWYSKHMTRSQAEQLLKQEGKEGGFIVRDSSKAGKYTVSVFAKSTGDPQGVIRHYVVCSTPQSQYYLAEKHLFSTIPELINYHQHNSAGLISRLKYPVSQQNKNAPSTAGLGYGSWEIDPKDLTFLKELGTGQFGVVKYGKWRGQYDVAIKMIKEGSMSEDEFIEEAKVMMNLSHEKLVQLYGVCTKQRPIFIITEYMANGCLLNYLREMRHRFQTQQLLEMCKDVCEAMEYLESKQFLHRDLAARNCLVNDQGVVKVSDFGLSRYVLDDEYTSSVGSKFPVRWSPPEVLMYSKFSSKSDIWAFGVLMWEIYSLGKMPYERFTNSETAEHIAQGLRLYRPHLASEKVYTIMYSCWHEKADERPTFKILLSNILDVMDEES
Cyclin-dependent kinase 5, sequence (Q00535 whole entry): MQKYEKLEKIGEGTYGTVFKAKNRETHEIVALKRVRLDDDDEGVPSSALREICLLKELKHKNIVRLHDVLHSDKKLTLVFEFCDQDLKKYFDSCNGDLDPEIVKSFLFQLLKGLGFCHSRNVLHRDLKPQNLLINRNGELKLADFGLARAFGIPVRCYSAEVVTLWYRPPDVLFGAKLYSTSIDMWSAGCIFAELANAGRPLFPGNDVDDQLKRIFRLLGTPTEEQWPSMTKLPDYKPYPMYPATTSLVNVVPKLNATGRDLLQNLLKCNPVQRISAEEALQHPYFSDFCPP
Cyclin-dependent kinase 4, sequence (P11802 whole entry): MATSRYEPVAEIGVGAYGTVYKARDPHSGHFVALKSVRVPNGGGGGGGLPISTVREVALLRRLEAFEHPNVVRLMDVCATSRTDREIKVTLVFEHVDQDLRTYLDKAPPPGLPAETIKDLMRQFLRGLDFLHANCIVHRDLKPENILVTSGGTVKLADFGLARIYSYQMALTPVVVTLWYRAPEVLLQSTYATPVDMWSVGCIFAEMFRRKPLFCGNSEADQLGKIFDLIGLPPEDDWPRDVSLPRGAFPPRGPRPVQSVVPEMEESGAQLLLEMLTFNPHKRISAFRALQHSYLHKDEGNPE
Cyclin-dependent kinase 9, sequence (P50750 whole entry): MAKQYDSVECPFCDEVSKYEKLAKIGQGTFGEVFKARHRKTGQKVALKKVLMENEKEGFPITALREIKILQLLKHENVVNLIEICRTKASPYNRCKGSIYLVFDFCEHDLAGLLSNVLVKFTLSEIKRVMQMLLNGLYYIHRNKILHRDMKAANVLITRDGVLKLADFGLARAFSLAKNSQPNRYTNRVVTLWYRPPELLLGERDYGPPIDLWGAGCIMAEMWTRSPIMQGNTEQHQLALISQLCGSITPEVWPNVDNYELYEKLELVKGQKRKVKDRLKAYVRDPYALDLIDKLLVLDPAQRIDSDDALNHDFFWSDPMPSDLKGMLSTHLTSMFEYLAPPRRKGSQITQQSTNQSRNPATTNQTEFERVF

For orientation: IC50 means the concentration that gives 50% inhibition. Consider `CCCCOc1cc(/C=C2\Oc3ccccc3C2=O)ccc1O`, for which the IC50 in [1] turned out to be 29.1 µM. On to `COc1ccc(-c2cnc3scc(NC(=O)C4CCCCC4)c3c2)cc1OC`, for which the IC50 stood at 1.31 µM in assay [1], 55 µM in [2] and 39.8 µM in [3].

Take `COc1ccc2c(c1)C(=O)/C(=C/c1ccc(O)c(O)c1)O2`: the IC50 in assay [1] amounted to 0.25 µM; in [4], 5.81 µM; in assay [2], 6.34 µM; in assay [3], 12.1 µM; in assay [5], 3.05 µM; in [6], 2.19 µM. The IC50 in assay [7] came out at 0.51 µM; in assay [8], 1.05 µM; in assay [9] it was 5.03 µM; in assay [10] it was 8.84 µM; in assay [11] it was 5.3 µM.

For `CCOc1cc(/C=C2\Oc3cccc(OC)c3C2=O)ccc1O`, the IC50 in assay [1] was determined as 7.26 µM. Same read-out and setting: next, `O=C1/C(=C/c2ccccc2)Oc2ccccc21` [(Z)-AURONE]: 24.6 µM. On the same count and under the same terms, next, `CCOc1cc(/C=C2\Oc3cc(OC)ccc3C2=O)ccc1O`: 2.44 µM; `O=C1/C(=C/c2ccc(O)c(O)c2)Oc2ccccc21`: 3.08 to 3.15 µM. As to `CCOc1cc(/C=C2\Oc3ccc(OC(C)=O)cc3C2=O)ccc1O`, in assay [1], the IC50 came to 0.69 µM. On the same count and under the same terms, next, `CCOc1cc(/C=C2\Oc3cc(Cl)ccc3C2=O)ccc1O`: 40.5 µM. On the same count and under the same terms, next, `COc1cc(/C=C2\Oc3ccccc3C2=O)cc(OC)c1O`: 6.65 µM; `CCOc1cc(/C=C2\Oc3ccc(N)cc3C2=O)ccc1O`: 7.16 µM; `O=C1/C(=C/c2ccc(O)c(O)c2)Cc2ccccc21`: 13.3 µM. The same measure, in the same setting: next, `O=C1/C(=C/c2ccc(O)c(O)c2)Oc2ccc(O)cc21`: 0.99 µM; `CCCCOc1ccc2c(c1)C(=O)/C(=C/c1ccc(O)c(OCC)c1)O2`: 3.66 µM; `O=C1c2ccccc2OC1Cc1ccc(O)c(O)c1` (stereo not given): 27.8 µM. As for `O=C(c1ccc(O)c(O)c1)c1cc2ccccc2o1`, the IC50 in assay [1] stood at 22.9 µM. Consider `O=C1/C(=C/c2ccc(F)cc2)Oc2ccccc21`, for which the IC50 in assay [1] amounted to 40.5 µM. Still for that read-out and setting: the value for `O=C1/C(=C/c2ccc(O)cc2)Oc2ccccc21` was 53 µM; that for `O=C1/C(=C/c2ccc(CO)cc2)Oc2ccccc21` was 11.1 µM.

On to `CCOc1cc(/C=C2\Oc3ccc(F)cc3C2=O)ccc1O`, for which, in assay [1], the IC50 turned out to be 1.05 µM. Take `COc1ccc(/C=C2\Oc3ccccc3C2=O)cc1OC` [3',4'-DIMETHOXY-AURONE]: the IC50 in assay [1] was 21.4 µM. On to `CCOc1cc(/C=C2\Oc3ccc(Br)cc3C2=O)ccc1O`, for which the IC50 in assay [1] was 28.1 µM. On to `CCOc1cc(/C=C2\Oc3ccc(Cl)cc3C2=O)ccc1O`, for which the IC50 in assay [1] came to 13.7 µM. Take `CCOc1cc(/C=C2\Oc3cc(F)ccc3C2=O)ccc1O`: the IC50 in assay [1] amounted to 60.4 µM.

In the case of `CCOc1cc(/C=C2\Oc3c(OC)cccc3C2=O)ccc1O`, in assay [1], the IC50 was found to be 1.29 µM. Still for that read-out and setting: the value for `CCOc1cc(/C=C2\Oc3ccc(C)cc3C2=O)ccc1O` was 0.96 µM. Still for that read-out and setting: the value for `CC(C)Oc1cc(/C=C2\Oc3ccccc3C2=O)ccc1O` was 17.4 µM.

Regarding `CCOc1ccc2c(c1)C(=O)/C(=C/c1ccc(O)c(OCC)c1)O2`, the IC50 in assay [1] is 0.41 µM. Regarding `O=C1/C(=C/c2cccnc2)Oc2ccccc21`, in [1], the IC50 came to 39.4 µM. Still for that read-out and setting: next, `CCOc1cc(/C=C2\Oc3ccc(I)cc3C2=O)ccc1O`: 42.5 µM; `CCCOc1cc(/C=C2\Oc3ccccc3C2=O)ccc1O`: 5.37 µM.

For the compound `COc1ccc(/C=C2\Oc3ccccc3C2=O)cc1O`, in [1], the IC50 came out at 12.1 µM. Same read-out and setting: next, `COc1cc(/C=C2\Oc3ccccc3C2=O)ccc1O`: 3.11 µM.

Regarding `O=C1/C(=C/c2ccc(O)c(O)c2)Oc2cc(O)ccc21` [SULFURETIN], the IC50 in [1] came out at 1.02 µM; in [4] it was 5.85 µM; in assay [12], 13.2 µM; in [2], 3.07 µM; in assay [3], 2.33 µM; in assay [5], 2.88 µM. Also, the IC50 in assay [6] was 2.02 µM; in assay [7] it was 0.95 µM; in assay [13], 9.32 µM; in assay [14], 4.26 µM; in [15] it was 4.63 µM; in [8], 0.85 µM. Further, the IC50 in [9] was found to be 6.02 µM; in [16], 2.82 µM; in [10] it was 1.5 µM; in assay [17], 2.44 µM; in [18], 2.16 µM; in assay [11] it was 1.95 µM. Consider `CCOc1cc(/C=C2\Oc3ccccc3C2=O)ccc1O`, for which, in [1], the IC50 stood at 3.24 µM.

In the case of `O=C1/C(=C/c2ccco2)Oc2ccccc21`, the IC50 in [1] is 64 µM.
